# Reference: US11571421B2, “GABAA positive allosteric modulator compounds for treatment of itch and/or dermatitis” (NeuroCycle Therapeutics, Inc., priority 2018, dated 2023)
# Experiments:
# Format in all cases: in vivo
# [1] = test system: Oxazolone-induced Itch Model in Male C57BL/6 Mice; test: Oxazolone-induced dermatitis model of chronic itch (Example 7)
# Experimental: In order to assess: the antipruritic effect of PF-06372865 in a clinically relevant disease, the development of a tolerance towards the antipruritic effect of PF-06372865, and the effect of PF-06372865 in reducing dermatitis after prolonged treatment, the oxazolone-induced dermatitis model of chronic itch is used. To this end, wild-type C57Bl/6 mice are treated with 100 μL of 10% oxazolone (4-Ethoxymethylene-2-phenyl-2-oxazolin-5-one) dissolved in acetone/olive oil (4:1) on the nape of the neck. From day 7 to day 31 these mice are treated every other day with 100 μL 1% oxazolone to induce and maintain dermatitis and chronic itch. From day 17 onward, mice are treated with intraperitoneal injection of vehicle or 10 mg/kg PF-06372865 for thirteen consecutive days. On day 31, mice are given either intraperitoneal injection of vehicle or PF-06372865 (10 mg/kg). The number of scratching bouts directed to the nape of the neck between 15 to 210 min after injection are recorded. […] This is independent of the treatment they received from day 7 to day 30. […] To quantify the severity of skin lesions, a dermatitis score are determined. Hemorrhage/erythema, dryness/scaring and hyperplasia (Yamada et. al. Exp Dermatol. 2016, 25, 611-617) are scored as 0 (none), 1 (mild), 2 (moderate) or 3 (severe) once per day resulting in a score between 0 and 9. […]
# Male C57BL/6 Mice = test: Sedative effects, open field arena activity (Example 4); details: per oral 1, 3, 10, 30 and 100 mg/kg; recorded for one hour starting one hour after injection
# Experimental: In order to exclude any sedative effects PF-06372865 might have on mice, a dose-response experiment is included. The mice receive per oral injections of PF-06372865 in varying doses (vehicle, 1, 3, 10, 30 and 100 mg/kg). After injection, the mice are placed in an open field arena and their activity is recorded for one hour starting one hour after injection.
# [2] = test system: Oxazolone-Induced Dermatitis Model in male C57BL/6 mice; test: Repeat dose Oxazolone-Induced Dermatitis Model (Example 10)
# Experimental: Male C57BL/6 Mice (8-10 weeks) are used in the study. Mice are housed one per cage and are maintained at controlled environmental conditions with 12-h light and dark cycles. The temperature and humidity of the room are maintained between 22±3° C. and 55±5%, respectively. The maximum and minimum temperature and relative humidity in the experimental rooms are recorded once daily.
# NCT10004 phosphate (adjusted with salt correction factor) is weighed into a clean glass container. 0.5% Methyl Cellulose (MC) is added, and the resulting mixture is mixed well using mild vortexing and stirred for 40 minutes to provide a homogeneous suspension.
# PF-06372865 is weighed into a clean mortar. […]
# Animals are dosed with respective treatment groups for fourteen consecutive Days (From Day 17-Day 30). To quantify any changes in the severity of skin lesions, Animals are assigned dermatitis scores prior to dosing and daily there after starting from Day 17 and ending on Day 30.
# Skin lesion are observed and scored as follows: Hemorrhage/erythema, dryness/scaling and hyperplasia are scored as 0 (none), 1 (mild), 2 (moderate) or 3 (severe) once per day resulting in a composite score between 0 and 9. […]
# Animals are observed by an observer blind to the treatment group for a period of 210 minutes post Oxazolone application. Number of scratching bouts directed to the nape between 15 to 210 min after dosing are recorded. […]
# [3] = test system: Dry Itch Model in Male C57BL/6 Mice; test: Dry skin itch model (Example 8); details: 10 mg/kg intraperitoneal; 15 to 210 min after injection
# Experimental: In order to assess the antipruritic effect of PF-06372865 in another clinically relevant disease, the dry skin model of dermatitis is used. In the dry skin model, mice are treated with a mixture of acetone and diethylether (1:1) on the shaved nape of the neck for 15 s, followed by distilled water for 30 sec, twice daily for 10 days. On the day of the experiment, mice received intraperitoneal injection of vehicle or PF-06372865 (10 mg/kg). The number of scratching bouts directed to the nape of the neck between 15 to 210 min after injection are recorded.
compound,measurement,setting,value
CCn1cnc2c(-c3ccc(F)c(-c4ccc(S(=O)(=O)CC)cc4OC)c3)cnnc21 [PF-06372865],skin lesions (dermatitis score),[1]; 10 mg/kg intraperitoneal for thirteen consecutive days,significant reduction in skin lesions
same,scratching bouts compared to vehicle injection,"[1]; 10 mg/kg intraperitoneal on day 31, 15 to 210 min after injection",significant reduction in scratching bouts
same,open field activity compared to vehicle,Male C57BL/6 Mice,significant increase in activity
same,skin lesions (lesion score),"[2]; 1 mg/kg BID PO, Day 17-Day 30",decreases skin lesions comparable to the NCT10004
same,scratching bouts,"[2]; 1 mg/kg PO, 15-210 minutes",reduces scratching bouts
same,scratching bouts compared to vehicle injection,[3],significant reduction in scratching bouts
